{"source": "paper PMC12057046", "about": "“Elucidation of short linear motif-based interactions of the MIT and rhodanese domains of the ubiquitin-specific protease 8” (Biology Direct, 2025)", "origin": "cited, not measured here", "tested_on": "USP8 MIT domain", "details": "187-ELSQRLARLR-196; ref [17], [38]; cited from earlier work", "excerpt": "To further elucidate the peptide binding determinants of the interactions with USP8 MIT domain we performed a deep mutational scanning (DMS) analysis of two model peptides: one peptide from melanophilin (MLPH481 − 496: […]) which served as a representative of the MIM1-like motif and the EFCAB12 peptide (EFCAB12_1 − 16: […]), which shares some sequence similarity with the DBP116 − 131 peptide. We designed a library of peptides in which each position of the two parental peptides were mutated to all other amino acids (except cysteine) following a classic saturation mutag ..."}
{"sequence": "ELSQRLARLR [CHMP1B]", "values": [{"measurement": "binding to USP8 MIT", "result": "USP8 MIT binding peptides"}]}
